Laboratory results: patent publication US20230405118A1, “STAT-ACTIVATED MACROPHAGES, COMPOSITIONS, AND USES THEREOF” (THE GEORGE WASHINGTON UNIVERSITY, A CONGRESSIONALLY …, priority 2020, published 2023)

Key:
Type in all cases: cell-based, mouse
TGFβ = TGFβ gene expression by quantitative real-time PCR in pre-treated macrophages; details: FIG. 3
Description: (§1) Bone marrow derived macrophages (BMDMs): For macrophage isolation, bone marrow from 6-12 weeks old C57BL/6 mouse was used following an IACUC approved protocol. Briefly, femurs and tibia bones were isolated after removing the skeletal muscles. The bone marrow was flushed with RPMI complete medium supplemented with non-essential amino acids. A single-cell suspension of bone marrow was prepared with repeated pipetting and incubated with 20 ng/mL of mouse recombinant M-CSF (Biolegend) at 37° C. for 4 days to differentiate into macrophages.
(§2) Bone marrow derived macrophages (BMDMs) were differentiated into macrophages with M-CSF. These naïve macrophages were pre-treated with Nexturastat A (NextA) or 6-nitrobenzo[b]thiophene-1,1-dioxide (Stattic) and polarized to M2 macrophages with IL4/IL13. Pre-treatment with NextA and Stattic decreased polarization of M2 macrophages as indicated by flow cytometry.
(§3) Further validation of M2 polarization markers at gene expression levels by quantitative real-time PCR indicate that Arginase I, TGFβ, and FIZZ1, which are tumor-promoting factors, were decreased. FIG. 2, FIG. 3, and FIG. 4.

Arginase I = Arginase I gene expression by quantitative real-time PCR in pre-treated macrophages; details: FIG. 2
Description: as §1, §2, §3

[1] = tested on: M2 macrophages (bone marrow derived macrophages polarized with IL4/IL13); experiment: M2 polarization of pre-treated BMDMs, CD206 marker by flow cytometry; details: naïve BMDMs pre-treated with compound, then polarized to M2 with IL4/IL13; FIG. 1
Description: as §1
Flow cytometry: Flow cytometry was performed following the protocol described previously. Knox et al., Sci Rep. 2019 Oct. 10; 9(1):14824. doi: 10.1038/s41598-019-51403-6. Briefly, mice were euthanized following the IACUC protocol, and tumor cells were processed into a single cell suspension for analysis by flow cytometry with tumor digestion buffer. The following antibodies were used to stain cell surface markers expressed by different immune cells. All the antibodies were purchased from Biolegend (San Diego, CA) unless otherwise specified. Myeloid cell surface markers are as follows: APC anti-mouse CD80 (clone 16-10A1), PE/Cy7 anti-mouse CD206 (MMR) (clone C068C2), APC/Fire™ 750 anti-mouse CD45.2 (clone 104), FITC anti-mouse H-2 (clone M1/42), Brilliant Violet 785TM anti-mouse F4/80 (clone BM8), and Alexa Fluor® 700 anti-mouse CD3 (clone 17A2). […]

FIZZ1 = FIZZ1 gene expression by quantitative real-time PCR in pre-treated macrophages; details: FIG. 4
Description: as §1, §2, §3

CCCCN(Cc1ccc(C(=O)NO)cc1)C(=O)Nc1ccccc1 [NextA, Nexturastat A]
decreased: TGFβ expression level (M2 polarization marker) (TGFβ) | Arginase I expression level (M2 polarization marker) (Arginase I) | polarization of M2 macrophages (CD206 as marker, flow cytometry) [1] | FIZZ1 expression level (M2 polarization marker) (FIZZ1)

O=[N+]([O-])c1ccc2c(c1)S(=O)(=O)C=C2 [Stattic, 6-nitrobenzo[b]thiophene-1,1-dioxide]
decreased: TGFβ expression level (M2 polarization marker) (TGFβ) | Arginase I expression level (M2 polarization marker) (Arginase I) | polarization of M2 macrophages (CD206 as marker, flow cytometry) [1] | FIZZ1 expression level (M2 polarization marker) (FIZZ1)
